Test results: article PMC7215089, “Identification of a Conserved Prophenoloxidase Activation Pathway in Cotton Bollworm Helicoverpa armigera” (Frontiers in Immunology, 2020)

Biological target: T1, PPO / PO (PPO1-PPO2 heterodimer) (Helicoverpa armigera, UniProt A0A290U614+Q2VIY6)
T1 sequence (A0A290U614 1-684): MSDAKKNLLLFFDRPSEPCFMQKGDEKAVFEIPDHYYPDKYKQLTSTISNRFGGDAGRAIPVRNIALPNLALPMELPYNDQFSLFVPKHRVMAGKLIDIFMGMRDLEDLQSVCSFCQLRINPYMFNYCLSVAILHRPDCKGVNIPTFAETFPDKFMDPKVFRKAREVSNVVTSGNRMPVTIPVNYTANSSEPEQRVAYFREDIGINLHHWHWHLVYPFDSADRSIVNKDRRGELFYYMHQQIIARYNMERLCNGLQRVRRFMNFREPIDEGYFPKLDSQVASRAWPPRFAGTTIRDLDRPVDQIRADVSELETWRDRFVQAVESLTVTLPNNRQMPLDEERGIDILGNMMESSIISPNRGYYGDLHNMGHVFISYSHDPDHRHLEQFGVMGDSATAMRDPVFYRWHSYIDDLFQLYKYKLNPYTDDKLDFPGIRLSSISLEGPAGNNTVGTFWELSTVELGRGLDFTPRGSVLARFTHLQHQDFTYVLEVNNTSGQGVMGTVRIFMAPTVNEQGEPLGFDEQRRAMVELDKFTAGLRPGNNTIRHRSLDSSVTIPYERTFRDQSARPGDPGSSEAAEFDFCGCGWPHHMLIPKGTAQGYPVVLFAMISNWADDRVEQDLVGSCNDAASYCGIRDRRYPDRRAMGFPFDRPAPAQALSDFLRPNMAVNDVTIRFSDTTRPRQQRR
T1 sequence (Q2VIY6 1-698): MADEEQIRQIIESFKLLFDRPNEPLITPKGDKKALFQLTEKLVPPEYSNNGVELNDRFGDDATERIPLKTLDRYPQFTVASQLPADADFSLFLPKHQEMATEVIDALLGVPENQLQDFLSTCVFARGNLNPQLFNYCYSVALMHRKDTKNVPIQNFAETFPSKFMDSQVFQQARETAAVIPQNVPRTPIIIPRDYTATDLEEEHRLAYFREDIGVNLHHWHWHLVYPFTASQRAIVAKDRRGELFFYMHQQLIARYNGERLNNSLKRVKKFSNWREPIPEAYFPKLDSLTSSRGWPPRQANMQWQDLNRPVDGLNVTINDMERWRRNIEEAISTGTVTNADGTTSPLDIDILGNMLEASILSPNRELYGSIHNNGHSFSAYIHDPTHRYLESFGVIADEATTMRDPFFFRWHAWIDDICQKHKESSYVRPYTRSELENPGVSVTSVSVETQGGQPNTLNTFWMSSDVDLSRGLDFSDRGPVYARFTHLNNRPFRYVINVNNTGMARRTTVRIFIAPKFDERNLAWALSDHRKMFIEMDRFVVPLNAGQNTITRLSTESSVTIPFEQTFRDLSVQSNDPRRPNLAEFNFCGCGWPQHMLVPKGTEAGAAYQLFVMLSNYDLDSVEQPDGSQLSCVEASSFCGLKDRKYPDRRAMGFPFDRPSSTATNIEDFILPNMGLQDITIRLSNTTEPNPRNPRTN
Assay: phenoloxidase assay, dopamine chrome formation
Type: biochemical
Settings: PPO activated by CPC

Structure (SMILES): NCCc1ccc(O)c(O)c1 [dopamine]
- phenoloxidase assay, dopamine chrome formation: production of dopamine chrome (or dopachrome) from dopamine (or dopa)
